Measurements: patent US20260248788A1, “NEW COMPOUNDS AND TREATMENT OF RENAL CELL CARCINOMA” (TRUSTLIFE THERAPEUTICS INC., priority 2023, published 2026)
“Also recorded” adds a separate entry of the source.

What was measured:
Format in all cases: cell-based, human
Caki-1 cells [1] = assay: LDH cytotoxicity assay; settings: for cytotoxic effect and dose dependence: Caki-1, 10 nM-30 μM; for cytotoxicity (LDH assay): Caki-1, 10 μM; for cytotoxicity (LDH assay) / Ranking, Cytotoxicity (%): 1 day; for Ranking, Cytotoxicity (%): top five, LDH assay, 10 μM, rank 1 = highest; for cytotoxicity according to LDH assay (conclusion): Caki-1; for cytotoxicity according to LDH assay (conclusion) / cytotoxicity (summary statement): concentration not given; for cell death / toxicity (LDH): Caki-1, 10 and 30 μM
Method: (§1) Cell culture 2: Caki-1 was purchased from CLS Cell Lines Service (Germany). The cells were maintained in McCoy's 5A (modified) medium (16600082, Thermo Fisher Scientific, USA) and supplemented with 10% fetal bovine serum (FBS, F7524, Sigma-Aldrich), 1% Penicillin/Streptomycin (P4333, Sigma-Aldrich).
Lactate dehydrogenase (LDH) assay was performed with LDH Assay Kit (ab65393). […] 20 μl of media was analysed with LDH Assay Kit as per manufacturer's instruction.

Caki-1 cells [2] = assay: Cell morphology (DIC images) of treated Caki-1 cells; settings: Caki-1, 10 μM, 1 day; for effect on the cell morphology: DIC images (FIG. 52)
Text: The effect of treatment of Caki-1 cells with the target compounds was further evaluated by monitoring the cell morphology of treated cells, see FIG. 52.

BUB1B = assay: Western blot of BUB1B in Caki-1 cells treated with TG-101209 derivatives; settings: for expression levels of BUB1B (Western blot): Caki-1 cells, 5 μM of target drug, 1 day (FIG. 41, 56); for expression levels of BUB1B (summary statement): concentration not given
Method: as §1
The target drugs developed as alternatives to TG-101209, were dissolved in 0.1% DMSO (41639, Sigma-Aldrich). Caki-1 cells from cell culture 2 were seeded in a 6-well plate at 3×10^5 cells per well. […]
The cells were washed with PBS solution and then lysed with CelLytic M (C2978, Sigma-Aldrich) lysis buffer containing protease inhibitors (11836170001, Roche). The cell lysates were centrifuged at 12 000 rpm for 10 min and supernatants were collected. Protein Assay Dye Reagent (5000006, Bio-Rad) was used for the determination of protein concentration. The absorbance of the proteins was measured spectrophotometrically at 595 nm by a microplate reader (Hidex Sense Beta Plus). Protein electrophoresis was performed using Mini-PROTEAN® TGX™ Precast Gels (4561086, Bio-Rad) and then the separated proteins were transferred to a Trans-Blot Turbo Mini 0.2 μm PVDF Transfer Packs membrane (1704158, Bio-Rad) by using Trans-Blot® Turbo™ Transfer System (Bio-Rad). The membrane was blocked with 5% skim milk for 30 min at 4° C. with gentle rocking. After blocking, the membrane was treated with primary antibodies: Anti-BUB1B (HPA008419, Human Protein Atlas, Sweden) and Anti-Beta actin (ab8227, Abcam) as a loading control overnight at 4° C. on a rocking platform. After the treatment of primary antibodies, the membrane was washed three times with TBS-T buffer (A09-7500-100, Medicago). Then, Goat anti-Rabbit IgG-HRP (ab205718, Abcam) was treated as the secondary antibody for 30 min at 4° C. with gentle rocking.

Caki-1 cells [3] = assay: MTT cell viability assay; settings: for change of IC50 values after 2 days compared to 1 day treatment: Caki-1 (FIG. 53-54); for reduction in cell viability (MTT) / effect on cell viability (MTT): 1 day; for cell viability over the treatment period (MTT): 27 h, 48 h and 72 h (FIG. 55); for IC50 values compared with TG-101209: Caki-1, 1 and 2 days (FIG. 53-54); for cell viability of treated cells (summary statement) / reduction in cell viability according to MTT assay (conclusion): concentration not given; for reduction in cell viability according to MTT assay (conclusion): Caki-1
Method: as §1
The cytotoxic effects of the TG-101209 and its alternatives on the Caki-1 cells were tested by MTT (Thiazolyl Blue Tetrazolium Bromide) method. 1.5×10^4 cells were seeded per well in a 96-well plate in 100 μL growth media. […] After the incubation period, 5 mg/ml MTT (M2128, Sigma-Aldrich) solution in PBS (10 μL) was added to each well. After 1 hour, the MTT solution and all media were removed from the wells. 100 μl of DMSO was added and mixed to dissolve the formazan crystals. Cell viability was analysed by measuring the absorbance of the dissolved formazan at a wavelength of 570 nm with a microplate reader (Hidex Sense Beta Plus).

Compound	cytotoxic effect and dose dependence (Caki-1 cells [1])	cytotoxicity (LDH assay) (Caki-1 cells [1]; first batch)	Ranking, Cytotoxicity (%) (Caki-1 cells [1])	mechanism according to morphology evaluation (Caki-1 cells [2])	effect on the cell morphology (Caki-1 cells [2])	expression levels of BUB1B (Western blot) (BUB1B)	expression levels of BUB1B (summary statement) (BUB1B)	change of IC50 values after 2 days compared to 1 day treatment (Caki-1 cells [3])	reduction in cell viability (MTT) (Caki-1 cells [3]; Caki-1, 5 μM, first batch)	effect on cell viability (MTT) (Caki-1 cells [3]; Caki-1, 10 μM, first batch)	cell viability over the treatment period (MTT) (Caki-1 cells [3]; Caki-1, 10 μM)	IC50 values compared with TG-101209 (Caki-1 cells [3])	cell viability of treated cells (summary statement) (Caki-1 cells [3])	cytotoxicity according to LDH assay (conclusion) (Caki-1 cells [1])	reduction in cell viability (MTT) (Caki-1 cells [3]; Caki-1, 10 μM, second batch)	IC50 value after treatment for 1 day (Caki-1 cells [3]; Caki-1, doses 10 nM to 30 μM (FIG. 53))	reduction in cell viability according to MTT assay (conclusion) (Caki-1 cells [3])	cytotoxicity (LDH assay) (Caki-1 cells [1]; second batch)	cell death / toxicity (LDH) (Caki-1 cells [1])	cytotoxicity (summary statement) (Caki-1 cells [1])
Cc1cnc(Nc2ccc(N3CCN(C)CC3)cc2)nc1Nc1cccc(S(=O)(=O)NC2CCC2)c1 [Compound M5, N-cyclobutyl-3-((5-methyl-2-((4-(4-methylpiperazin-1-yl)phenyl)amino)pyrimidin-4-yl)amino)benzenesulfonamide]	dose dependent toxicity	highest cytotoxicity	2	cell growth inhibition mechanism	distinct effect on the cell morphology	significantly lower the expression levels of BUB1B	reduction of the expression levels of BUB1B	largest decrease	the greatest	greatest reduction of cell viability	larger decrease in cell viability than TG-101209	better IC50 values than TG-101209	especially low cell viability; also recorded: particularly low cell viability							
Cc1ccc(Nc2ncc(C)c(Nc3cccc(S(=O)(=O)NC(C)(C)C)c3)n2)cc1S(N)(=O)=O [Compound M66, N-(tert-butyl)-3-((5-methyl-2-((4-methyl-3-sulfamoylphenyl)amino)pyrimidin-4-yl)amino)benzenesulfonamide]		exhibited cytotoxicity	4			significantly lower the expression levels of BUB1B	reduction of the expression levels of BUB1B		the greatest	most profound effect			particularly low cell viability; also recorded: significantly reduced cell viability							
COc1cc(Nc2ncc(C)c(Nc3cccc(S(=O)(=O)NC(C)(C)C)c3)n2)cc(OC)c1OC [Compound M76, N-(tert-butyl)-3-((5-methyl-2-((3,4,5-trimethoxyphenyl)amino)pyrimidin-4-yl)amino)benzenesulfonamide]	dose dependent toxicity			cell growth inhibition mechanism	distinct effect on the cell morphology	ability to lower the expression levels of BUB1B	reduction of the expression levels of BUB1B	largest decrease			larger decrease in cell viability than TG-101209	better IC50 values than TG-101209	especially low cell viability; also recorded: significantly reduced cell viability	greatest cytotoxicity	the greatest	lowest IC50 value	greatest reduction in cell viability			
Cc1cnc(Nc2ccc(C(=O)Nc3ccc(N4CCN(C)CC4)cc3)cc2)nc1Nc1cccc(S(=O)(=O)NC(C)(C)C)c1 [Compound M101N, 4-((4-((3-(N-(tert-butyl)sulfamoyl)phenyl)amino)-5-methylpyrimidin-2-yl)amino)-N-(4-(4-methylpiperazin-1-yl)phenyl)benzamide]				work as cytotoxic agents	distinct effect on the cell morphology	did not affect the expression levels of BUB1B					larger decrease in cell viability than TG-101209		particularly low cell viability; also recorded: significantly reduced cell viability	greatest cytotoxicity	the greatest		greatest reduction in cell viability	greatest cytotoxicity	strong toxicity	high cytotoxicity
Cc1cnc(Nc2ccc(C(=O)Nc3ccc(OCCN4CCCC4)cc3)cc2)nc1Nc1cccc(S(=O)(=O)NC(C)(C)C)c1 [Compound M101P, 4-((4-((3-(N-(tert-butyl)sulfamoyl)phenyl)amino)-5-methylpyrimidin-2-yl)amino)-N-(4-(2-(pyrrolidin-1-yl)ethoxy)phenyl)benzamide]				work as cytotoxic agents	distinct effect on the cell morphology	ability to lower the expression levels of BUB1B					larger decrease in cell viability than TG-101209		particularly low cell viability; also recorded: significantly reduced cell viability	greatest cytotoxicity	the greatest		greatest reduction in cell viability	greatest cytotoxicity	strong toxicity	high cytotoxicity
COc1cc(Nc2ncc(C)c(Nc3ccc(N4CCN(C)CC4)cc3)n2)cc(OC)c1OC [Compound M119, 5-methyl-N4-(4-(4-methylpiperazin-1-yl)phenyl)-N2-(3,4,5-trimethoxyphenyl)pyrimidine-2,4-diamine]							reduction of the expression levels of BUB1B						especially low cell viability; also recorded: significantly reduced cell viability							
COc1cc(Nc2ncc(C)c(Nc3cccc(S(=O)(=O)NC4CCC4)c3)n2)cc(OC)c1OC [Compound M120, N-cyclobutyl-3-((5-methyl-2-((3,4,5-trimethoxyphenyl)amino)pyrimidin-4-yl)amino)benzenesulfonamide]							reduction of the expression levels of BUB1B						especially low cell viability; also recorded: particularly low cell viability; also recorded: significantly reduced cell viability		the greatest					
Cc1ccc(Nc2ncc(C)c(Nc3ccc(N4CCN(C)CC4)cc3)n2)cc1S(N)(=O)=O [Compound M123, 2-methyl-5-((5-methyl-4-((4-(4-methylpiperazin-1-yl)phenyl)amino)pyrimidin-2-yl)amino)benzenesulfonamide]							reduction of the expression levels of BUB1B						particularly low cell viability; also recorded: significantly reduced cell viability							
